This note sets out measurements from PMC6270263, “Factors Influencing the Antifolate Activity of Synthetic Tea-Derived Catechins” (Molecules, 2013).

The test system of the assay is SK-MEL-28 melanoma cells. Put plainly: Apoptosis assay (cell death detection ELISA) with or without site markers. The conditions noted are these: SK-MEL-28, 10 µM, alone. It is filed as cell-based, human. The source says: Serum is commonly used as a supplement in cell culture media. It supports cell growth and product formation by providing a broad spectrum of macromolecules, attachment factors, nutrients, and hormone and growth factors. The most commonly used animal serum supplement is foetal bovine serum, FBS (alternatively called foetal calf serum—FCS). Because BSA is a major component of FBS, the in vitro activity of catechins on tumour cells might be affected by their interaction with BSA. The effect of albumin binding on the biological activity of polyphenols is unclear. Does the bound ligand have some biological activity or does the polyphenol have to be in the free form to be active? To answer this question and to determine whether BSA-catechin interactions increase or decrease catechin anti-tumour activity, the proapoptotic activity of TMCG on SK-MEL-28 melanoma cells was probed in the presence of warfarin or ibuprofen [Figure 5(b)]. […] Because the binding of catechins to BSA seems to control drug availability, the lower affinity of TMCG and TMECG for serum albumins, with respect to natural tea catechins, might contribute to the high in vivo anti-tumour activity of these methylated synthetic catechins. […]
The human melanoma cell line SK-MEL-28 was obtained from American Type Culture Collection (ATCC, Manassas, VA, USA) and was maintained in Eagles’s Minimum Essential Medium (EMEM) supplemented with 10% (v/v) FBS and antibiotics at 37 °C in a humidified atmosphere containing 7.5% CO2. Cell viability was evaluated using the MTT cell proliferation assay. Cells were evaluated for apoptosis using a cell death detection ELISA (Cell Death Detection ELISAPLUS, Roche Diagnostics, Barcelona, Spain). […] The amount of nucleosomes is photometrically quantified at 405 nm by the peroxidase activity retained in the immunocomplexes. Apoptosis was defined as the specific enrichment of mono- and oligonucleosomes in the cytoplasm and was calculated by dividing the absorbance of treated samples with the absorbance of untreated samples after correcting for the number of cells. […]
On the technique in general: An ELISA detects its analyte on a solid surface through an enzyme-linked reagent.

For `CC(C)Cc1ccc(C(C)C(=O)O)cc1` (centres unmarked) [ibuprofen, reference compound], the “Induction of apoptosis, compound alone” value is given as “did not induce apoptosis”. With `CC(=O)CC(c1ccccc1)c1c(O)c2ccccc2oc1=O` (centres unmarked) [warfarin, reference compound], the “Induction of apoptosis, compound alone” value is “did not induce apoptosis”.
